Experiments:
Assay type in all cases: functional
Blumeria graminis = experiment: Fungicidal activity against Blumeria graminis infected on foliar spray based compound pre-treated first-leaf stage 7 day old barley plants assessed as barley powdery mildew disease control level at 250 ppm measured 7 days post fungal exposure relative to untreated control
Puccinia recondita [1] = experiment: Fungicidal activity against Puccinia recondita infected foliar spray based compound pre-treated first-leaf stage wheat plants assessed as wheat leaf rust disease control level at 250 ppm measured 10 days post fungal exposure relative to untreated control
Phytophthora infestans = experiment: Fungicidal activity against Phytophthora infestans zoosporangia infected on foliar spray based compound pre-treated 14 days old tomato plants assessed as tomato late blight disease control level at 250 ppm measured 4 days post fungal exposure relative to untreated control
Botrytis cinerea = experiment: Fungicidal activity against Botryotinia fuckeliana infected foliar spray based compound pre-treated first-leaf stage cucumber plants assessed as cucumber gray mold disease control level at 250 ppm measured 4 to 5 days post fungal exposure relative to untreated control
Rhizoctonia solani = experiment: Fungicidal activity against Rhizoctonia solani infected on foliar spray based compound pre-treated third-leaf stage rice plants assessed as rice sheath blight disease control level at 250 ppm measured 5 days post fungal exposure relative to untreated control
Puccinia recondita [2] = experiment: Fungicidal activity against Puccinia recondita infected foliar spray based compound pre-treated first-leaf stage wheat plants assessed as wheat leaf rust disease control level at 2 ppm measured 10 days post fungal exposure relative to untreated control
Puccinia recondita [3] = experiment: Fungicidal activity against Puccinia recondita infected foliar spray based compound pre-treated first-leaf stage wheat plants assessed as wheat leaf rust disease control level at 10 ppm measured 10 days post fungal exposure relative to untreated control
Puccinia recondita [4] = experiment: Fungicidal activity against Puccinia recondita infected foliar spray based compound pre-treated first-leaf stage wheat plants assessed as wheat leaf rust disease control level at 50 ppm measured 10 days post fungal exposure relative to untreated control

Q: Which results are given for CCON=Cc1onc2c1CCOC2c1ccc(Cl)cc1 (mixture of isomers)?
A: Activity (Blumeria graminis): 81%; Activity (Puccinia recondita [1]): 52%; Activity (Phytophthora infestans): 14%; Activity (Botrytis cinerea): 10%; Activity (Rhizoctonia solani): 55%

Q: Which results are given for C=CCON=Cc1onc2c1CCOC2c1ccccc1Cl (mixture of isomers)?
A: Activity (Blumeria graminis): 80%; Activity (Puccinia recondita [1]): 46%; Activity (Phytophthora infestans): 14%; Activity (Botrytis cinerea): 0%; Activity (Rhizoctonia solani): 17%

Q: CCON=Cc1onc2c1CCOC2c1ccccc1Cl (mixture of isomers) was tested. Which Activity (Blumeria graminis) did it give?
A: 91%

Q: And the Activity (Puccinia recondita [1])?
A: 76%

Q: And the Activity (Phytophthora infestans)?
A: 78%

Q: What about the Activity (Botrytis cinerea) of the same compound?
A: 5%

Q: What about the Activity (Rhizoctonia solani) of the same compound?
A: 64%

Q: What does the source list for Clc1ccccc1C1OCCc2c1noc2CBr (stereo not drawn)?
A: Activity (Blumeria graminis): 16%; Activity (Puccinia recondita [1]): 97%; Activity (Phytophthora infestans): 7%; Activity (Botrytis cinerea): 52%; Activity (Rhizoctonia solani): 41%

Q: Which Activity (Blumeria graminis) does the source give for O=Cc1onc2c1CCOC2c1ccccc1Cl (stereo not drawn) here?
A: 83%

Q: What about the Activity (Puccinia recondita [1]) of the same compound?
A: 53%

Q: And the Activity (Phytophthora infestans)?
A: 21%

Q: And the Activity (Botrytis cinerea)?
A: 0%

Q: What about the Activity (Rhizoctonia solani) of the same compound?
A: 17%

Q: Which results are given for C=CCON=Cc1onc2c1CCOC2c1ccc(Cl)cc1 (mixture of isomers)?
A: Activity (Blumeria graminis): 100%; Activity (Puccinia recondita [1]): 96%; Activity (Phytophthora infestans): 7%; Activity (Botrytis cinerea): 10%; Activity (Rhizoctonia solani): 75%

Q: For ON=Cc1onc2c1CCOC2c1ccc(Cl)cc1 (mixture of isomers), which Activity (Blumeria graminis) is on record?
A: 0%

Q: And the Activity (Puccinia recondita [1])?
A: 86%

Q: And the Activity (Phytophthora infestans)?
A: 10%

Q: What about the Activity (Botrytis cinerea) of the same compound?
A: 0%

Q: And the Activity (Rhizoctonia solani)?
A: 45%

Q: What does the source list for Clc1ccc(C2OCCc3c2noc3CBr)cc1 (stereo not drawn)?
A: Activity (Puccinia recondita [2]): 50%; Activity (Blumeria graminis): 50%; Activity (Puccinia recondita [1]): 100%; Activity (Phytophthora infestans): 22%; Activity (Botrytis cinerea): 0%; Activity (Rhizoctonia solani): 0%; Activity (Puccinia recondita [3]): 53%; Activity (Puccinia recondita [4]): 90%

Q: Which results are given for ON=Cc1onc2c1CCOC2c1ccccc1Cl (stereo not drawn)?
A: Activity (Blumeria graminis): 0%; Activity (Puccinia recondita [1]): 0%; Activity (Phytophthora infestans): 42%; Activity (Botrytis cinerea): 5%; Activity (Rhizoctonia solani): 52%

Q: Which results are given for CON=Cc1onc2c1CCOC2c1ccccc1Cl (stereo not drawn)?
A: Activity (Blumeria graminis): 41%; Activity (Puccinia recondita [1]): 0%; Activity (Phytophthora infestans): 50%; Activity (Botrytis cinerea): 0%; Activity (Rhizoctonia solani): 29%

Q: What does the source list for OCc1onc2c1CCOC2c1ccc(Cl)cc1 (stereo not drawn)?
A: Activity (Blumeria graminis): 3%; Activity (Puccinia recondita [1]): 0%; Activity (Phytophthora infestans): 2%; Activity (Botrytis cinerea): 0%; Activity (Rhizoctonia solani): 0%

Q: OCc1onc2c1CCOC2c1ccccc1Cl (stereo not drawn) was tested. Which Activity (Blumeria graminis) did it give?
A: 0%

Q: And the Activity (Puccinia recondita [1])?
A: 10%

Q: And the Activity (Phytophthora infestans)?
A: 0%

Q: And the Activity (Botrytis cinerea)?
A: 0%

Q: What about the Activity (Rhizoctonia solani) of the same compound?
A: 0%

Q: Which Activity (Blumeria graminis) does the source give for CON=Cc1onc2c1CCOC2c1ccc(Cl)cc1 (mixture of isomers) here?
A: 96%

Q: What about the Activity (Puccinia recondita [1]) of the same compound?
A: 12%

Q: And the Activity (Phytophthora infestans)?
A: 0%

Q: And the Activity (Botrytis cinerea)?
A: 28%

Q: What about the Activity (Rhizoctonia solani) of the same compound?
A: 65%

Q: Which Activity (Blumeria graminis) does the source give for Clc1ccc(C2OCCc3c2noc3COC2CCCCO2)cc1 (stereo not drawn) here?
A: 0%

Q: What about the Activity (Puccinia recondita [1]) of the same compound?
A: 0%

Q: What about the Activity (Phytophthora infestans) of the same compound?
A: 9%

Q: And the Activity (Botrytis cinerea)?
A: 0%

Q: What about the Activity (Rhizoctonia solani) of the same compound?
A: 0%

Q: For Clc1ccccc1C1OCCc2c1noc2COC1CCCCO1 (stereo not drawn), which Activity (Blumeria graminis) is on record?
A: 16%

Q: And the Activity (Puccinia recondita [1])?
A: 86%

Q: What about the Activity (Phytophthora infestans) of the same compound?
A: 0%

Q: And the Activity (Botrytis cinerea)?
A: 0%

Q: And the Activity (Rhizoctonia solani)?
A: 47%

Q: What does the source list for O=Cc1onc2c1CCOC2c1ccc(Cl)cc1 (stereo not drawn)?
A: Activity (Blumeria graminis): 0%; Activity (Puccinia recondita [1]): 0%; Activity (Phytophthora infestans): 19%; Activity (Botrytis cinerea): 30%; Activity (Rhizoctonia solani): 0%
